What follows are molecules tested against T1, Syk catalytic domain (aa 356-635 with a C-terminal His-tag) (Homo sapiens, UniProt P43405) (assay: In vitro Syk kinase activity measured by trFRET, Syk catalytic domain). Conditions: Syk catalytic domain (aa 356-635), trFRET, 0.001 mM ATP.
T1 construct: His-tag (C); made in house
Type: biochemical
Outline: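 Kinase reaction: 0.14 nM His-tagged catalytic domain, 0.2 μM biotin-TYR1 peptide, 0.001 mM ATP in 50 mM MOPSO pH 6.5 with MgCl2, MnCl2, DTT, BSA, vanadate, ~60 min at rt, then EDTA quench. Phosphoproduct detected by trFRET (Eu anti-pTyr antibody/streptavidin-APC, 665 nm emission); IC50 from signal in linear range.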

| Compound | IC50 [nM] |
| --- | --- |
| COc1ccc(-c2cc3c(ncc4cnc(C)n43)[nH]2)cc1 [M.1.25] | < 100 |
| Cc1ncc2cnc3[nH]c(-c4cnn(C)c4)cc3n12 [M.2.1] | 100 to 1000 |
| COc1ccc(-c2nn(C)c3c2cnc2[nH]cc(C#N)c23)cc1 [M.2.3] | < 100 |
| Cc1nc(-c2ccc(C(C)(C)O)cc2)c2cnc3[nH]cc(C#N)c3n12 [M.2.4] | < 100 |
| CN1CCN(CCNC(=O)Cc2cccc(-c3cc4c(ncc5cnn(C)c54)[nH]3)c2)CC1 [N.1, 2-(3-(1-Methyl-1,6-dihydropyrazolo[3,4-d]pyrrolo[2,3-b]pyridin-7-yl)phenyl)-N-(2-(4-methylpiperazin-1-yl)ethyl)acetamide] | 1000 to 10000 |
| Cn1ncc2cnc3[nH]c(-c4ccc(C(C)(C)O)cc4)cc3c21 [N.1.1] | < 100 |
| CC(=O)NCc1cccc(-c2cc3c(ncc4cnn(C)c43)[nH]2)c1 [N.1.3] | < 100 |
| CNC(=O)c1cccc(-c2cc3c(ncc4cnn(C)c43)[nH]2)c1 [N.1.4] | < 100 |
| Cn1ncc2cnc3[nH]c(-c4cccc(C(=O)NCCN5CCOCC5)c4)cc3c21 [N.1.6] | < 100 |
| COCCCNC(=O)c1cccc(-c2cc3c(ncc4cnn(C)c43)[nH]2)c1 [N.1.7] | 100 to 1000 |
| Cn1ncc2cnc3[nH]c(-c4cccc(C(=O)N5CCCC5)c4)cc3c21 [N.1.8] | 100 to 1000 |
| CNC(=O)Cc1cccc(-c2cc3c(ncc4cnn(C)c43)[nH]2)c1 [N.1.9] | 100 to 1000 |
| COCCCNC(=O)Cc1cccc(-c2cc3c(ncc4cnn(C)c43)[nH]2)c1 [N.1.11] | 100 to 1000 |
| Cn1ncc2cnc3[nH]c(-c4cccc(CC(=O)NCCN5CCOCC5)c4)cc3c21 [N.1.12] | 100 to 1000 |
| Cn1ncc2cnc3[nH]c(-c4cccc(S(N)(=O)=O)c4)cc3c21 [N.1.13] | < 100 |
| COc1ccc(-c2cc3c(ncc4cnn(C)c43)[nH]2)cc1 [N.1.14] | < 100 |
| CCc1c(-c2ccc3c(ccn3C)c2)[nH]c2ncc3cnn(C)c3c12 [N.1.15] | 1000 to 10000 |
| CCc1c(-c2cccc3c2ccn3C)[nH]c2ncc3cnn(C)c3c12 [N.1.16] | > 10000 |

| Compound | IC50 [nM] |
| --- | --- |
| Cn1cc(-c2cc3c(ncc4cnn(C)c43)[nH]2)c2cc(F)ccc21 [N.1.17] | < 100 |
| COc1ccc2[nH]cc(-c3cc4c(ncc5cnn(C)c54)[nH]3)c2c1 [N.1.19] | < 100 |
| CCc1c(-c2ccc(C(C)(C)O)cc2)[nH]c2ncc3cnn(C)c3c12 [N.1.20] | < 100 |
| CCc1c(-c2cccc(S(C)(=O)=O)c2)[nH]c2ncc3cnn(C)c3c12 [N.1.21] | 100 to 1000 |
| COc1ccc2c(c1)c(-c1cc3c4c(cnc3[nH]1)CCN4C)cn2C [N.1.22] | 1000 to 10000 |
| CN1CCc2cnc3[nH]c(-c4ccc(C(C)(C)O)cc4)cc3c21 [N.1.23] | 1000 to 10000 |
| Cn1cc(-c2cc3c(ncc4cnn(C)c43)[nH]2)c2ccccc21 [N.1.24] | < 100 |
| COc1ccc2c(c1)c(-c1cc3c(ncc4cnn(C)c43)[nH]1)cn2CC(=O)N(C)C [N.1.25] | < 100 |
| COc1ccc2c(c1)c(-c1cc3c(ncc4cnn(C)c43)[nH]1)cn2CC(O)CO (stereo not drawn) [N.1.26] | < 100 |
| Cn1ncc2cnc3[nH]c(-c4cnc5n4CCC5)cc3c21 [N.1.27] | 1000 to 10000 |
| COCCNC(=O)Cn1cc(-c2cc3c(ncc4cnn(C)c43)[nH]2)c2cc(OC)ccc21 [N.1.28] | < 100 |
| COc1ccc2c(c1)c(-c1cc3c(ncc4cnn(C)c43)[nH]1)cn2CC(O)CN(C)C (stereo not drawn) [N.1.29] | < 100 |
| CCc1c(-c2cccc(C(=O)NCCN3CCOCC3)c2)[nH]c2ncc3cnn(C)c3c12 [N.1.30] | 1000 to 10000 |
| CCc1c(-c2ccc(N3CCOCC3)cc2)[nH]c2ncc3cnn(C)c3c12 [N.1.31] | 100 to 1000 |
| CN(C)S(=O)(=O)c1cccc(-c2cc3c(ncc4cnn(C)c43)[nH]2)c1 [N.1.32] | < 100 |
| CNS(=O)(=O)c1cccc(-c2cc3c(ncc4cnn(C)c43)[nH]2)c1 [N.1.33] | < 100 |
| Cn1ncc2cnc3[nH]c(-c4cccc(S(=O)(=O)NCCO)c4)cc3c21 [N.1.34] | < 100 |
| CCc1c(-c2cn(C)c3ccc(OC)cc23)[nH]c2ncc3cnn(C)c3c12 [N.1.35] | 1000 to 10000 |
